# Experimental data taken from patent US10995091B2 (Proximagen, LLC, priority 2010, dated 2021).
# Where a name gives a salt, the structure may show the parent alone.
# Target: T1, Human CXCR4 transfected HEK293 cells (Homo sapiens, UniProt P61073)
# T1 construct: expressed in transfected cells; host or cells: HEK293
# Assay: CXCR4 functional calcium assay (calcium flux FLIPR, antagonism of SDF1 response)
# Type: cell-based
# Conditions: CXCR4 functional activity, antagonism of SDF1 (EC50 concentration), read-out: CXCR4 fKi
# How it was run: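 Dose-dependent antagonism of the SDF1 response was read by FLIPR as Fluo-4 calcium signal (2 μM dye) in CXCR4-expressing human HEK293 cells, in HBSS with probenecid, BSA and HEPES at pH 7.4 and 37° C. Test compound was given before an EC50-level SDF1 challenge. Curves were then fitted.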
# T1 sequence (P61073 whole entry): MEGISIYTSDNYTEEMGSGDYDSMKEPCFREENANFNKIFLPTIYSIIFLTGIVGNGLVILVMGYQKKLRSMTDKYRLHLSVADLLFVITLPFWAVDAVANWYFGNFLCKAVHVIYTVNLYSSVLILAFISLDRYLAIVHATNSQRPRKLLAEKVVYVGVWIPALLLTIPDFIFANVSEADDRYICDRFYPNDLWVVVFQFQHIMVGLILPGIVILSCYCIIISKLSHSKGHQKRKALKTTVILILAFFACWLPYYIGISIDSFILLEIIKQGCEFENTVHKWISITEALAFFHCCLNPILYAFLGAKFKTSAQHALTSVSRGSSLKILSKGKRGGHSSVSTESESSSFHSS
row,Compound,Ki [nM]
1,"CC(C)N1CCC(N2CCCN(c3cccc(-c4nc5ccccc5o4)n3)CC2)CC1 [Example 152, 2-(6-{4-[1-(Propan-2-yl)piperidin-4-yl]-1,4-diazepan-1-yl}pyridine-2-yl)-1,3-benzoxazole]",100 to 500
2,"Cc1nc(-c2cccc(N3CCCN(C4CCN(C(C)C)CC4)CC3)n2)no1 [Example 153, 1-[6-(5-Methyl-1,2,4-oxadiazol-3-yl)pyridin-2-yl]-4-[1-(propan-2-yl)piperidin-4-yl]-1,4-diazepane]",500 to 1000
3,"CCCc1nc(-c2cccc(N3CCCN(C4CCN([C@H](C)CC)CC4)CC3)n2)no1 [Example 154, 1-{1-[(2R)-Butan-2-yl]piperidin-4-yl}-4-[6-(5-propyl-1,2,4-oxadiazol-3-yl)pyridin-2-yl]-1,4-diazepane]",100 to 500
4,"CCc1nc(-c2cccc(N3CCCN(C4CCN(C(C)C)CC4)CC3)n2)no1 [Example 155, 1-[6-(5-Ethyl-1,2,4-oxadiazol-3-yl)pyridine-2-yl]-4-[1-(propan-2-yl)piperidin-4-yl]-1,4-diazepane trihydrochloride]",100 to 500
5,"CCCc1nc(-c2cccc(N3CCCN(C4CCN(C(C)C)CC4)CC3)n2)no1 [Example 156, 1-[1-(Propan-2-yl)piperidin-4-yl]-4-[6-(5-propyl-1,2,4-oxadiazol-3-yl)pyridine-2-yl]-1,4-diazepane]",20 to 100
6,"CCCCc1nc(-c2cccc(N3CCCN(C4CCN(C(C)C)CC4)CC3)n2)no1 [Example 157, 1-[6-(5-Butyl-1,2,4-oxadiazol-3-yl)pyridine-2-yl]-4-[1-(propan-2-yl)piperidin-4-yl]-1,4-diazepane]",100 to 500
7,"CC(C)c1nc(-c2cccc(N3CCCN(C4CCN(C(C)C)CC4)CC3)n2)no1 [Example 158, 1-{6-[5-(Propan-2-yl)-1,2,4-oxadiazol-3-yl]pyridine-2-yl}-4-[1-(propan-2-yl)piperidin-4-yl]-1,4-diazepane]",500 to 1000
8,"CC(C)N1CCC(N2CCCN(c3cccc(-c4noc(C(C)(C)C)n4)n3)CC2)CC1 [Example 159, 1-[6-(5-tert-Butyl-1,2,4-oxadiazol-3-yl)pyridine-2-yl]-4-[1-(propan-2-yl)piperidin-4-yl]-1,4-diazepane]",500 to 1000
9,"CC(C)N1CCC(N2CCCN(c3cccc(-c4noc(CC(C)(C)C)n4)n3)CC2)CC1 [Example 160, 1-{6-[5-(2,2-Dimethylpropyl)-1,2,4-oxadiazol-3-yl]pyridine-2-yl}-4-[1-(propan-2-yl)piperidin-4-yl]-1,4-diazepane]",100 to 500
10,"CC(C)N1CCC(N2CCCN(c3cccc(-c4noc(C5CC5)n4)n3)CC2)CC1 [Example 161, 1-[6-(5-Cyclopropyl-1,2,4-oxadiazol-3-yl)pyridine-2-yl]-4-[1-(propan-2-yl)piperidin-4-yl]-1,4-diazepane]",100 to 500
11,"CC(C)N1CCC(N2CCCN(c3cccc(-c4noc(C5CCCC5)n4)n3)CC2)CC1 [Example 162, 1-[6-(5-Cyclopentyl-1,2,4-oxadiazol-3-yl)pyridine-2-yl]-4-[1-(propan-2-yl)piperidin-4-yl]-1,4-diazepane]",100 to 500
12,"COCc1nc(-c2cccc(N3CCCN(C4CCN(C(C)C)CC4)CC3)n2)no1 [Example 163, 1-{6-[5-(Methoxymethyl)-1,2,4-oxadiazol-3-yl]pyridine-2-yl}-4-[1-(propan-2-yl)piperidin-4-yl]-1,4-diazepane]",100 to 500
13,"CC(C)N1CCC(N2CCCN(c3cccc(-c4noc(-c5ccccc5)n4)n3)CC2)CC1 [Example 164, 1-[6-(5-Phenyl-1,2,4-oxadiazol-3-yl)pyridine-2-yl]-4-[1-(propan-2-yl)piperidin-4-yl]-1,4-diazepane]",20 to 100
14,"CC(C)N1CCC(N2CCCN(c3cccc(-c4noc(-c5ccccn5)n4)n3)CC2)CC1 [Example 165, 1-[1-(Propan-2-yl)piperidin-4-yl]-4-{6-[5-(pyridine-2-yl)-1,2,4-oxadiazol-3-yl]pyridine-2-yl}-1,4-diazepane tetrahydrochloride]",100 to 500
15,"CC(C)N1CCC(N2CCCN(c3cccc(-c4noc(-c5cccnc5)n4)n3)CC2)CC1 [Example 166, 1-[1-(Propan-2-yl)piperidin-4-yl]-4-{6-[5-(pyridine-3-yl)-1,2,4-oxadiazol-3-yl]pyridine-2-yl}-1,4-diazepane tetrahydrochloride]",100 to 500
16,"CC(C)N1CCC(N2CCCN(c3cccc(-c4noc(-c5ccncc5)n4)n3)CC2)CC1 [Example 167, 1-[1-(Propan-2-yl)piperidin-4-yl]-4-{6-[5-(pyridine-4-yl)-1,2,4-oxadiazol-3-yl]pyridine-2-yl}-1,4-diazepane tetrahydrochloride]",20 to 100
17,"CC(C)N1CCC(N2CCCN(c3cccc(-c4nnn(C)n4)n3)CC2)CC1 [Example 168, 1-[6-(2-Methyl-2H-1,2,3,4-tetrazol-5-yl)pyridin-2-yl]-4-[1-(propan-2-yl)piperidin-4-yl]-1,4-diazepane]",100 to 500

row,Compound,Ki [nM]
1,"CC(C)N1CCC(N2CCCN(c3cccc(-c4nc(C5CC5)no4)n3)CC2)CC1 [Example 169, 1-[6-(3-Cyclopropyl-1,2,4-oxadiazol-5-yl)pyridin-2-yl]-4-[1-(propan-2-yl)piperidin-4-yl]-1,4-diazepane]",500 to 1000
2,"CC(C)N1CCC(N2CCCN(c3cccc(-c4nc(-c5ccccc5)no4)n3)CC2)CC1 [Example 170, 1-[6-(3-Phenyl-1,2,4-oxadiazol-5-yl)pyridin-2-yl]-4-[1-(propan-2-yl)piperidin-4-yl]-1,4-diazepane]",100 to 500
3,"CCCCc1cnc(-c2cccc(N3CCCN(C4CCN(C(C)C)CC4)CC3)n2)o1 [Example 171, 1-[6-(5-Butyl-1,3-oxazol-2-yl)pyridin-2-yl]-4-[1-(propan-2-yl)piperidin-4-yl]-1,4-diazepane]",500 to 1000
4,"CC(C)N1CCC(N2CCCN(c3cccc(-c4nnc(C5CC5)o4)n3)CC2)CC1 [Example 172, 1-[6-(5-Cyclopropyl-1,3,4-oxadiazol-2-yl)pyridin-2-yl]-4-[1-(propan-2-yl)piperidin-4-yl]-1,4-diazepane]",100 to 500
5,"Cc1cn[nH]c1-c1cccc(N2CCCN(C3CCN(C(C)C)CC3)CC2)n1 [Example 173, 1-[6-(4-Methyl-1H-pyrazol-3-yl)pyridin-2-yl]-4-[1-(propan-2-yl)piperidin-4-yl]-1,4-diazepane Trihydrochloride]",500 to 1000
6,"CC(C)N1CCC(N2CCC(C)N(c3cccc(C(=O)NCC4CC4)n3)CC2)CC1 (stereo not shown) [Example 174, N-(Cyclopropylmethyl)-6-{7-methyl-4-[1-(propan-2-yl)piperidin-4-yl]-1,4-diazepan-1-yl}pyridine-2-carboxamide]",100 to 500
7,"[2H]C1([2H])CCN(C2CCN(C(C)C)CC2)CCN1c1cccc(C(=O)Nc2ccncc2)n1 [Example 175, 6-{7,7-Dihydrogenio-4-[1-(propan-2-yl)piperidin-4-yl]-1,4-diazepan-1-yl}-N-(pyridine-4-yl)pyridine-2-carboxamide]",< 20
8,"[2H]C1([2H])CCN(C2CCN([C@H](C)CC)CC2)CCN1c1cccc(C(=O)Nc2ccncc2)n1 [Example 176, 6-(4-{1-[(2R)-Butan-2-yl]piperidin-4-yl}-7,7-dihydrogenio-1,4-diazepan-1-yl)-N-(pyridine-4-yl)pyridine-2-carboxamide]",< 20
9,"[2H]C1([2H])CCN(C2CCN([C@@H](C)CC)CC2)CCN1c1cccc(C(=O)Nc2ccncc2)n1 [Example 177, 6-(4-{1-[(2S)-Butan-2-yl]piperidin-4-yl}-7,7-dihydrogenio-1,4-diazepan-1-yl)-N-(pyridine-4-yl)pyridine-2-carboxamide]",< 20
10,"[2H]C1([2H])CCN(C2CCN([C@@H](C)C(F)(F)F)CC2)CCN1c1cccc(C(=O)Nc2ccncc2)n1 [Example 178, 6-(7,7-Dihydrogenio-4-{1-[(2S)-1,1,1-trifluoropropan-2-yl]piperidin-4-yl}-1,4-diazepan-1-yl)-N-(pyridine-4-yl)pyridine-2-carboxamide]",20 to 100
11,"[2H]C1([2H])CCN(C2CCN(C3CCCC3)CC2)CCN1c1cccc(C(=O)Nc2ccncc2)n1 [Example 179, 6-[4-(1-Cyclopentylpiperidin-4-yl)-7,7-dihydrogenio-1,4-diazepan-1-yl]-N-(pyridine-4-yl)pyridine-2-carboxamide]",< 20
12,"[2H]C1([2H])CCN(C2CCN(Cc3ccccc3Cl)CC2)CCN1c1cccc(C(=O)Nc2ccncc2)n1 [Example 180, 6-(4-{1-[(2-Chlorophenyl)methyl]piperidin-4-yl}-7,7-dihydrogenio-1,4-diazepan-1-yl)-N-(pyridin-4-yl)pyridine-2-carboxamide]",< 20
13,"[2H]C1([2H])CCN(C2CCN(C(C)C)CC2)CCN1c1cccc(C(=O)NCC2CC2)n1 [Example 181, N-(Cyclopropylmethyl)-6-{7,7-dihydrogenio-4-[1-(propan-2-yl)piperidin-4-yl]-1,4-diazepan-1-yl}pyridine-2-carboxamide]",20 to 100
14,"CC1CN(c2cccc(C(=O)Nc3ccncc3)n2)CCN(C2CCN(C(C)C)CC2)C1 (stereo not shown) [Example 182, 6-{6-Methyl-4-[1-(propan-2-yl)piperidin-4-yl]-1,4-diazepan-1-yl}-N-(pyridin-4-yl)pyridine-2-carboxamide]",20 to 100
15,"CC(C)N1CCC(N2CCN(c3cccc(C(=O)NCC4CC4)n3)CC(O)C2)CC1 (stereo not shown) [Example 183, N-(Cyclopropylmethyl)-6-{6-hydroxy-4-[1-(propan-2-yl)piperidin-4-yl]-1,4-diazepan-1-yl}pyridine-2-carboxamide]",100 to 500
16,"CC(C)N1CCC(N2CCN(c3cccc(C(=O)NCC4CC4)n3)CCC2C)CC1 (stereo not shown) [Example 184, N-(Cyclopropylmethyl)-6-{5-methyl-4-[1-(propan-2-yl)piperidin-4-yl]-1,4-diazepan-1-yl}pyridine-2-carboxamide]",20 to 100
17,"CC(C)N1CCC(N2CCCN(c3cccc(C(=O)NCc4cccnc4)n3)CC2)C(F)C1 (stereo not shown) [Example 185, 6-{4-[3-Fluoro-1-(propan-2-yl)piperidin-4-yl]-1,4-diazepan-1-yl}-N-(pyridin-3-ylmethyl)pyridine-2-carboxamide]",100 to 500
